Laboratory results: patent US10604509B2, “Nrf2 regulators” (GlaxoSmithKline Intellectual Property Development Limited, priority 2015, dated 2020)
Where a name gives a salt, the structure may show the parent alone.

System: NQO1 specific enzyme activity in BEAS-2B cells
Assay: BEAS-2B NQO1 MTT assay
Format: cell-based
Conditions: BEAS-2B cells, 48 hours with compound, MTT readout; read-out: EC50 of NQO1 specific activity induction
How it was run: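 NQO1 specific activity, an NRF2 activation marker, read kinetically as absorbance change at 570 nm for 30 min after MTT cocktail addition to crude lysates of BEAS-2B cells exposed 48 h to compound. Three-parameter fit of Delta OD/min against log concentration gives EC50; lysate portion used for Cell Titer Glo.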

SMILES | EC50 [nM]
CC[C@@H]1CN(Cc2cc([C@H](c3ccc4c(nnn4CC)c3C)[C@H](C)C(=O)O)ccc2C)Cc2ccccc2O1 [Example 101, Ammonium (2S,3R)-3-(3-(((R)-2-ethyl-2,3-dihydrobenzo[f][1,4]oxazepin-4(5H)-yl)methyl)-4-methylphenyl)-3-(1-ethyl-4-methyl-1H-benzo[d][1,2,3]triazol-5-yl)-2-methylpropanate] | < 1
Cc1ccc(C(CC(=O)O)c2ccc3c(nnn3C)c2C)cc1CN1Cc2ccc(C#N)cc2OC(C)(C)C1 (single isomer, unassigned) [Example 174] | 10 to 100

Same assay, conditions: Homo sapiens, BEAS-2B, 48 h, BEAS-2B cells, 48 hours with compound, MTT readout; read-out: EC50 of NQO1 specific activity induction

SMILES | EC50 [nM]
Cc1ccc(C(CC(=O)O)c2ccc3c(nnn3C)c2C)cc1CN1Cc2ccccc2OC(C(C)C)C1 (stereo not drawn) [Example 72, 3-(1,4-dimethyl-1H-benzo[d][1,2,3]triazol-5-yl)-3-(3-((2-isopropyl-2,3-dihydrobenzo[f][1,4]oxazepin-4(5H)-yl)methyl)-4-methylphenyl)propanoic acid, formic acid salt] | 1000 to 10000
Cc1ccc(C(CC(=O)O)c2ccc3c(nnn3C)c2C)cc1CN1CCCC(S(=O)(=O)C2CCCCC2)C1 (stereo not drawn) [compound 186, 3-(3-((3-(Cyclohexylsulfonyl)piperidin-1-yl)methyl)-4-methylphenyl)-3-(1,4-dimethyl-1H-benzo[d][1,2,3]triazol-5-yl)propanoic acid] | 100 to 1000
CCC1CCN(Cc2nccn2Cc2cc(C(CCc3cn(CC)nn3)C(C)C(=O)O)ccc2C)CC1 (single isomer, unassigned; isomer 1) [Example 225, 5-(1-Ethyl-1H-1,2,3-triazol-4-yl)-3-(3-((2-((4-ethylpiperidin-1-yl)methyl)-1H-imidazol-1-yl)methyl)-4-methylphenyl)-2-methylpentanoic Acid, Trifluoroacetic Acid Salt (Compound 9, Isomer 1,Scheme A)] | 10 to 100
Cc1ccc(C(c2ccc3c(nnn3C)c2C)C(C)(C)C(=O)O)cc1Cn1ccnc1CC1CCCCC1 (stereo not drawn) [Example 143, 3-(3-((2-(Cyclohexylmethyl)-1H-imidazol-1-yl)methyl)-4-methylphenyl)-3-(1,4-dimethy-1H-benzo[d][1,2,3]triazol-5-yl)-2,2-dimethylpropanoic acid, trifluoroacetic acid salt] | 1000 to 10000
CC[C@@H]1CN(Cc2cc(C(CC(=O)O)c3ccc4c(nnn4C)c3C)ccc2C)Cc2ncccc2O1 (stereo partly drawn) [Example 79, 3-(1,4-Dimethyl-1H-benzo[d][1,2,3]triazol-5-yl)-3-(3-(((R)-2-ethyl-2,3-dihydropyrido[2,3-f][1,4]oxazepin-4(5H)-yl)methyl)-4-methylphenyl)propanoic acid] | 1000 to 10000
Cc1ccc(C(CC(=O)O)c2ccc3c(nnn3C)c2C)cc1CN1CCCn2cncc2C1 (stereo not drawn) [Example 92, 3-(3-((6,7-Dihydro-5H-imidazo[1,5-a][1,4]diazepin-8(9H)-yl)methyl)-4-methylphenyl)-3-(1,4-dimethyl-1H-benzo[d][1,2,3]triazol-5-yl)propanoic acid, Sodium salt] | 1000 to 10000
Cc1ccc([C@@H](c2ccc3c(nnn3C)c2C)C(C)(C)C(=O)O)cc1CN1CCC[C@@H](n2cccn2)C1 [compound 184, (S)-3-(3-(((R)-3-(1H-Pyrazol-1-yl)piperidin-1-yl)methyl)-4-methylphenyl)-3-(1,4-dimethyl-1H-benzo[d][1,2,3]triazol-5-yl)-2,2-dimethylpropanoic acid] | 100 to 1000
CC[C@@H]1CN(Cc2cc([C@H](CC(=O)O)c3ccc4c(nnn4CC)c3F)ccc2C)Cc2cccc(F)c2O1 [Example 52, (S)-3-(1-Ethyl-4-fluoro-1H-benzo[d][1,2,3]triazol-5-yl)-3-(3-(((R)-2-ethyl-9-fluoro-2,3-dihdyrobenzo[f][1,4]oxazepin-4(5H)-yl)methyl)-4-methylphenyl)propanoic acid, 0.5formic acid salt] | 1 to 10
CC[C@@H]1CN(Cc2cc(C(c3ccc4c(nnn4C)c3C)C(C)(C)C(=O)O)cnc2C)Cc2cnccc2O1 (stereo partly drawn) [Example 213, 3-(1,4-Dimethyl-1H-benzo[d][1,2,3]triazol-5-yl)-3-(5-(((R)-2-ethyl-2,3-dihydropyrido[3,4-f][1,4]oxazepin-4(5H)-yl)methyl)-6-methylpyridin-3-yl)-2,2-dimethylpropanoic acid, Trifluoroacetic Acid Salt] | 100 to 1000
CC[C@@H]1CN(Cc2cc(C(CC(=O)O)c3ccc4c(nnn4C)c3C)ccc2C)Cc2ccc(C)cc2O1 (stereo partly drawn) [Example 85, Ammoniumn 3-(1,4-Dimethyl-1H-benzo[d][1,2,3]triazol-5-yl)-3-(3-(((R)-2-ethyl-8-methyl-2,3-dihydrobenzo[f][1,4]oxazepin-4(5H)-yl)methyl)-4-methyphenyl)propanoate] | 100 to 1000
Cc1ccc([C@H](CC(=O)O)c2ccc3c(nnn3C)c2C)cc1CN1CCCC(n2cccn2)C1 (single isomer, unassigned) [compound 159] | 1000 to 10000
CCC1CCN(Cc2nccn2Cc2cc([C@@H](c3ccc4c(nnn4C)c3C)C(C)(C)C(=O)O)ccc2C)CC1 [Example 122, (S)-3-(1,4-Dimethyl-1H-benzo[d][1,2,3]triazol-5-yl)-3-(3-((2-((4-ethylpiperidin-1-yl)methyl)-1H-imidazol-1-yl)methyl)-4-methylphenyl)-2,2-dimethylpropanoate, Sodium salt] | 10 to 100
CCn1nnc2c(C)c([C@@H](c3ccc(C)c(CN4Cc5ccccc5OC(C)(C)C4)c3)C(C)(C)C(=O)O)ccc21 (single isomer, unassigned; enantiomer a) [Example 206] | 1 to 10
CC[C@@H]1CN(Cc2cc(C(CCc3cn(CC)nn3)CC(=O)NS(C)(=O)=O)ccc2C)Cc2cnccc2O1 (stereo partly drawn) [Example 234, 5-(1-Ethyl-1H-1,2,3-triazol-4-yl)-3-(3-(((R)-2-ethyl-2,3-dihydropyrido[3,4-f][1,4]oxazepin-4(5H)-yl)methyl)-4-methylphenyl)-N-(methylsulfonyl)pentanamide] | 1000 to 10000
Cc1ccc(C(CC(=O)O)c2ccc3c(nnn3C)c2C)cc1CN1Cc2ccccc2O[C@@H](C)C1 (stereo partly drawn) [Example 98, 3-(1,4-Dimethyl-1H-benzo[d][1,2,3]triazol-5-yl)-3-(4-methyl-3-(((S)-2-methyl-2,3-dihydrobenzo[f][1,4]oxazepin-4(5H)-yl)methyl)phenyl)propanoic Acid, Formic Acid Salt] | 100 to 1000
Cc1ccc(C(c2ccc3c(nnn3C)c2C)C(C)(C)C(=O)O)cc1Cc1cnnn1CC1CCCCCC1 (single isomer, unassigned) [Example 241] | < 1
Cc1ccc([C@@H](c2ccc3c(nnn3C)c2C)[C@@H](C)C(=O)O)cc1CN1Cc2cnccc2OC(C)(C)C1 [Example 203, (2R,3S)-3-(1,4-Dimethyl-1H-benzo[d][1,2,3]triazol-5-yl)-3-(3-((2,2-dimethyl-2,3-dihydropyrido[3,4-f][1,4]oxazepin-4(5H)-yl)methyl)-4-methylphenyl)-2-methylpropanoic Acid, 0.2 Formic Acid Salt] | 10 to 100
CC[C@@H]1CN(Cc2cc(C(CC(=O)O)c3ccc4c(nnn4C)c3C)ccc2C)Cc2cnccc2O1 (stereo partly drawn) [Example 86, 3-(1,4-Dimethyl-1H-benzo[d][1,2,3]triazol-5-yl)-3-(3-(((R)-2-ethyl-2,3-dihydropyrido[3,4-f][1,4]oxazepin-4(5H)-yl)methyl)-4-methylphenyl)propanoic acid] | 100 to 1000
Cc1ccc(C(CC(=O)O)c2ccc3c(nnn3C)c2C)cc1Cn1ccnc1CN1CCCCCC1 (stereo not drawn) [Example 147, 3-(3-((2-(Azepan-1-ylmethyl)-1H-imidazol-1-yl)methyl)-4-methylphenyl)-3-(1,4-dimethyl-1H-benzo[d][1,2,3]triazol-5-yl)propanoic acid, formic acid salt] | 1000 to 10000
CCC1CCN(Cc2nccn2Cc2cc(C(c3ccc4c(nnn4C)c3C)C(C)(C)C(=O)O)ccc2Cl)CC1 (stereo not drawn) [Example 236, 3-(4-Chloro-3-((2-((4-ethylpiperidin-1-yl)methyl)-1H-imidazol-1-yl)methyl)phenyl)-3-(1,4-dimethyl-1H-benzo[d][1,2,3]triazol-5-yl)-2,2-dimethylpropanoic Acid] | < 1
CC[C@@H]1CN(Cc2cc(C(CC(=O)O)c3ccc4c(nnn4C)c3C)ccc2C)Cc2ccc(F)cc2O1 (stereo partly drawn) [Example 75, 3-(1,4-Dimethyl-1H-benzo[d][1,2,3]triazol-5-yl)-3-(3-(((R)-2-ethyl-8-fluoro-2,3-dihydrobenzo[f][1,4]oxazepin-4(5H)-yl)methyl)-4-methylphenyl)propanoic Acid, Formic Acid Salt] | 100 to 1000
CC[C@@H]1CN(Cc2cc(C(CC(=O)O)c3ccc4c(nnn4C)c3C)ccc2C)Cc2cccc(C)c2O1 (stereo partly drawn) [Example 76, Ammonium 3-(1,4-Dimethyl-1H-benzo[d][1,2,3]triazol-5-yl)-3-(3-(((R)-2-ethyl-9-methyl-2,3-dihydrobenzo[f][1,4]oxazepin-4(5H)-yl)methyl)-4-methylphenyl)propanate] | 100 to 1000
Cc1c(C(CC(=O)O)c2ccc(Cl)c(CN3CCCC(O)C3)c2)ccc2c1nnn2C (stereo not drawn) [Example 161, 3-(4-chloro-3-((3-hydroxypiperidin-1-yl)methyl)phenyl)-3-(1,4-dimethyl-1H-benzo[d][1,2,3]triazol-5-yl)propanoic Acid] | 1000 to 10000
CC[C@@H]1CN(Cc2cc([C@H](CC(=O)O)c3ccc4c(nnn4CC)c3Cl)ccc2C)Cc2ccccc2O1 [Example 56, (S)-3-(4-Chloro-1-ethyl-1H-benzo[d][1,2,3]triazol-5-yl)-3-(3-(((R)-2-ethyl-2,3-dihydrobenzo[f][1,4]oxazepin-4(5H)-yl)methyl)-4-methylphenyl)propanoic acid] | 10 to 100

Same assay, conditions: Homo sapiens; BEAS-2B cells, 48 hours with compound, MTT readout; read-out: EC50 of NQO1 specific activity induction

SMILES | EC50 [nM]
CC[C@@H]1CN(Cc2cc([C@H](CC(=O)O)c3ccc4c(nnn4C)c3C)ccc2C)Cc2ncccc2O1 [Example 258, (S)-3-(1,4-dimethyl-1H-benzo[d][1,2,3]triazol-5-yl)-3-(3-(((R)-2-ethyl-2.3-dihydropyrido[2,3-f][1,4]oxazepin-4(5H)-yl)methyl)-4-methylphenyl)propionic Acid] | 10 to 100
